Source: article PMC6934184, “Selective DNA-PKcs inhibition extends the therapeutic index of localized radiotherapy and chemotherapy” (The Journal of Clinical Investigation, 2019)

Target: T1, DDR2 (Homo sapiens, UniProt Q16832)
T1 construct: purchased Thermo Fisher Scientific (Life Technologies) SelectScreen
Assay: SelectScreen LanthaScreen
Type: binding
Conditions: read-out: % displacement
Summary of the method: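 SelectScreen broad panel; activity (Z'LYTE, Adapta) plus binding formats. ATP: Km app for CSF1R Z'LYTE; 10 for CAMK1 Adapta. Readout = % per kinase.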

T1 sequence (Q16832 22-855): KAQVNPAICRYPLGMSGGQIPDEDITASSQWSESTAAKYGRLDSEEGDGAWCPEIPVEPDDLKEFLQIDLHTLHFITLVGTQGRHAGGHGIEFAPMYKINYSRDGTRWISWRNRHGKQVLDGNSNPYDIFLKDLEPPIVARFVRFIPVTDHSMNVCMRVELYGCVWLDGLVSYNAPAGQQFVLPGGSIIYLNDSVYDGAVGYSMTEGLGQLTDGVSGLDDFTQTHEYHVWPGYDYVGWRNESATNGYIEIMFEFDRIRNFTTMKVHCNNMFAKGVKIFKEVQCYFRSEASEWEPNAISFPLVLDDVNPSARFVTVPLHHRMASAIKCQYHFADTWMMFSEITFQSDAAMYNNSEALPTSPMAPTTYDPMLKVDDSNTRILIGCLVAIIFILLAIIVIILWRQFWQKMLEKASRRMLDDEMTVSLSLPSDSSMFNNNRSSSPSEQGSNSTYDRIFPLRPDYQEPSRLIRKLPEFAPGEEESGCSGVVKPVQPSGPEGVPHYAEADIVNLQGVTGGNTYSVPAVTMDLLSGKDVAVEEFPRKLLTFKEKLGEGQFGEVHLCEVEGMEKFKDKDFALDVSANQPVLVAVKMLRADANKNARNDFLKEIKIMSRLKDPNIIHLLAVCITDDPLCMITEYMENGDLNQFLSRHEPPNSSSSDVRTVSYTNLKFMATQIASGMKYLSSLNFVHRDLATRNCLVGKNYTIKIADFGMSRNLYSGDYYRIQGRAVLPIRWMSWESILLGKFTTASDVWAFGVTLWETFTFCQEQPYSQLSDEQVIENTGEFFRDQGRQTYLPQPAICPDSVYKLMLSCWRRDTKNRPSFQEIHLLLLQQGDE

SMILES: CN(C(=O)CN1CCOCC1)c1ccc2sc3c(-c4cccc5c(=O)cc(N6CC7CCC(C6)O7)oc45)cccc3c2c1 [NU5455]
- inhibition at 1 µM: 0.7%
